Here are results for 1 compound from patent US20150285812A1, “Fluorescence-Labelled Fatty Acids and Uses Thereof” (SANOFI, priority 2012, published 2015).

Data set [1] deals with T1, HSA (Homo sapiens, UniProt P02768).
T1 construct: purchased Sigma Aldrich A1887
Put plainly: Job plot of the fluorescence: stoichiometry of labelled fatty acids to HSA. It counts as binding. Conditions: maximum in the curve or none. On the procedure: The stoichiometry of NBD- and dansyl-labelled fatty acids bound to HSA was determined by Job plots, also called the “method of continuous variability” as different mole fractions of the respective binding partners are mixed with one another and then measured spectroscopically. Solutions of equimolar concentrations of HSA and dye were mixed such that the mole fractions of the substances were varied but the total molarity of the sample solution stayed constant. For short NBD derivatives C2 to C6 (12-14) no binding to HSA was confirmed, whereas binding ratios for long NBD derivatives C8 to C12 (15-17) to HSA were 1:1. For short dansyl derivatives C2 to C8 (19-22) binding ratios for HSA were 2:1, whereas the long dansyl derivatives C10 and C12 (23-24) bound to HSA in the ratio of 4:1. The finding that even dansyl C2 (19) was bound to HSA led to the question as to what extent the dansyl label itself is recognized by HSA. Because even dansyl methylamide (25) bound to HSA, even though it lacks a carboxyl group, it seems that the dye label could also bind to HSA.
For the Job plot the dye and HSA solutions were employed in equimolar amounts. 10.00 ml of 100 μM HSA solution and in each case 2.00 ml of a 100 μM dye solution (12-17; 19-25) were prepared from the above stock solutions. For the Job plot method the dye solutions were mixed with the HSA solution in different ratios as described below in Table 8. […] According to the same dilution scheme the dye solutions were also mixed with DPBS buffer for measuring the blank values of the fluorescence-labelled derivatives (see K. C. Ingham, Analytical Biochemistry 68 (1975) 660-663). […] Absorption was not measured. A fluorescence measurement without a wavelength scan was also carried out in analogy to the above experiment without HSA.
For NBD derivatives (12-17) and HSA 100 μM solutions were used. […] In total 11 solutions per dye derivative were prepared for fluorescence measurement by mixing the two binding partners. […] The fluorescence intensities were plotted against the mole fractions of the binding partners. […]

Data set [2] is described as follows: log D7.4 determination by RP-HPLC, similar to the water/octanol partition coefficient method. It is filed as physicochemical. To be noted: pH 7.4, RP-HPLC C18, range −1 to +6. The method, then:
log D7.4 values were determined by a method similar to the partition coefficient method in a water/octanol mixture and were carried out on an RP-HPLC from Waters Alliance (2795) having a C18 column (2×20 mm) with a gradient of morpholinesulfonic acid buffer (pH 7.4) and acetonitrile. The range was between −1 ([…]) to +6 (lipophilic).

Data set [3] has as its target T1, HSA. Kind of data set: Fluorescence of NBD and dansyl dyes with increasing HSA (FRET effect, emission maxima). It counts as binding. The method, then:
Absorption and fluorescence of fluorescence-labelled derivatives and HSA were carried out in a Varioskan™ microplate reader (Thermo Electron Corporation). 96 well (Costar, half area, flat bottom) microplates were used for absorption measurements and 384 well (Greiner Bio One, small volume, black) microplates from Greiner Bio One were used for fluorescence measurements. All measurements were carried out at pH 7.4 and room temperature.
5.00 ml of a 400 μM solution were prepared from the HSA stock solution. From this solution a geometric dilution series with 7 dilution steps, a dilution factor of 0.5 and a final volume of each concentration of 2.5 ml were prepared.
Defined concentrations of the fluorescence-labelled compounds were selected from the preceding experiment without HSA above and double-concentrated solutions thereof were prepared to take into account the later 1:1 dilution. For each fluorescence-labelled compound (12-17; 19-25) 1.00 ml of these double-concentrations was prepared. 50 μl of the dye solutions were introduced into a 96 well microplate and 50 μl each of the HSA dilution series were added. By mixing the solutions the concentrations of dye derivatives and the HSA solution were halved. The measurements of the absorption and fluorescence were carried out in analogy to the above experimental procedure without HSA.
In analogy to the absorption measurement the effect of HSA on the fluorescence of the dyes (12-17; 19-25) was determined. The same concentrations of NBD and dansyl dyes and the same concentration range for HSA as already described above were used.

T1 sequence (P02768 25-609): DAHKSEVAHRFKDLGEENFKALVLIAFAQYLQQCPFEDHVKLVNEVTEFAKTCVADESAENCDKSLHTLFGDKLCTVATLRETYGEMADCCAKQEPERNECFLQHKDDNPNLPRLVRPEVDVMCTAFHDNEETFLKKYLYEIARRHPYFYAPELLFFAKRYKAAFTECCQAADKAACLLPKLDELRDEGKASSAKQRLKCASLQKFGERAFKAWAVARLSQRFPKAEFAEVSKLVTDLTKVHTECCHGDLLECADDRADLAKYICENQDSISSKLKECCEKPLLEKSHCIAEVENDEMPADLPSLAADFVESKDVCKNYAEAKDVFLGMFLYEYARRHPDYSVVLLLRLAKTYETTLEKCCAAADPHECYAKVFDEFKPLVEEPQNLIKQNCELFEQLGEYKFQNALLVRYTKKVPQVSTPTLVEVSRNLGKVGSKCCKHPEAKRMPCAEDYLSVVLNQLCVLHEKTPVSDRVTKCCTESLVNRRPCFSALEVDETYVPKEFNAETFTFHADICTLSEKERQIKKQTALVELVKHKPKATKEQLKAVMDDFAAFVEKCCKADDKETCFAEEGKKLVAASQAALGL

Broadly, the chromatographic logD is a lipophilicity value derived from retention on a column. A lower chromatographic logD goes with a more hydrophilic compound. For the compound `CNS(=O)(=O)c1cccc2c(N(C)C)cccc12` [DMA (25), 5-Dimethylaminonaphthalene-1-sulfonic acid methylamide], the “binding to HSA (qualitative)” value is “binds to HSA” at HSA [1] and “bound to HSA” at HSA [1] (listed as dansyl methylamide (25)). In data set [2], this compound registered a chromatographic logD of 2.76. In addition, the “Δλ, shift of emission maximum λem without HSA vs with HSA” value at HSA [3] (dansyl compound 100 μM, λex = 330 nm) is given as 80 nm. Moreover, the “change in fluorescence intensity with increasing HSA concentration” value on HSA [3] (dansyl derivatives 100 μM, HSA 1.56 to 200 μM, 330-560 nm, pH 7.4) was “smallest fluorescence increase”.
